From patent publication US20150140005A1, “Methods and Uses for Proprotein Convertase Subtilisin Kexin 9 (PCSK9) Inhibitors” (Cyon Therapeutics Inc., priority 2012, published 2015)

B1: AMG145: Amgen monoclonal antibody specific for the catalytic domain of PCSK9 (antibody, chains of the INN, looked up, V domains shown)
VH: EVQLVQSGAEVKKPGASVKVSCKASGYTLTSYGISWVRQAPGQGLEWMGWVSFYNGNTNYAQKLQGRGTMTTDPSTSTAYMELRSLRSDDTAVYYCARGYGMDVWGQGTTVTVSS
VL: ESALTQPASVSGSPGQSITISCTGTSSDVGGYNSVSWYQQHPGKAPKLMIYEVSNRPSGVSNRFSGSKSGNTASLTISGLQAEDEADYYCNSYTSTSMVFGGGTKLTVL

Experiments:
LPS treated LDLR−/− mice = test: Responses to LPS treatment (lipopolysaccharide induced systemic inflammation) in LDLR−/− mice treated with saline or berberine; assay type: in vivo
Protocol: Healthy mice had activity level, body temperature, blood pressure, and cardiac function (echocardiography) assessed at baseline (time 0) as detailed below. Mice were then injected intra-peritoneally with LPS (20 mg/kg, E. coli strain 01 II: B4, Sigma™, St. Louis, Mo.). This dose was determined from previous experiments where, in the background strain of C57BL/6 mice, LPS 20 mg/kg delivered intra-peritoneally was the lowest dose, which was lethal in all cases within 12 hours^24. Then activity level and temperature were measured every hour for six hours. At six hours blood pressure was measured by invasive arterial cannulation and cardiac function (echocardiography) was assessed again.
Activity Index: Mice were observed during 2 minutes for posture and activity. 0 (normal) denotes that there are no times with a hunched posture, and the mouse had spontaneous rapid movements interspersed with eating and drinking. 1 (mild) is occasional brief (5-20 seconds) hunched posture, which spontaneously reverted to normal with ongoing spontaneous rapid movements interspersed with eating and drinking. 2 (mild-moderate) was longer (>20 seconds) in the hunched posture which spontaneously reverted to normal with ongoing spontaneous rapid movements interspersed with eating and drinking. 3 (moderate-severe) was nearly continual hunched posture with movement only when subjected to strong external stimuli. 4 (severe) was continual hunched posture without movement.
Temperature: Temperature was measured hourly using an infra-red thermometer (IR-101 La Crosse Technology, La Crosse USA)) held 2-3 mm from the abdomen.
Blood Pressure: At baseline (time 0) mean arterial blood pressure was measured using a non-invasive tail cuff (CODA 2™, Kent Scientific, Torrington, USA). Six hours after LPS injection, mice were anesthetized using inhaled isofluorane (1-3%). Following a small laparatomy, the abdominal aorta was punctured using a 27 gauge needle then a number 2 French micromanometer catheter (Mikro-tip SPR-838™, Millar Instruments Inc., Houston, Tex.) was inserted into the aorta. Mean arterial pressure was derived using analysis software (PVAN 2.9™, Millar Instruments Inc.).
Echocardiography: Mice were lightly anaesthetized using inhaled isofluorane (1-3%) and placed on a warming blanket. M-mode echocardiograms (ECHO) were targeted from 2D echos obtained using the Vevo 770 ECHO (Visualsonics™, Toronto, ON, Canada) operating at a 120 Hz frame rate. Left parasternal 2D left ventricular cross-sectional echocardiographic images were obtained. The position and angle of the echo transducer is maintained by directing the beam just off the tip of the anterior leaflet of the mitral valve and by maintaining internal anatomic landmarks constant. All measurements are taken from M-mode traces at end-expiration. Left ventricular internal dimensions were measured at end-diastole (defined as the onset of the QRS complex in lead II of the simultaneously obtained electrocardiogram) and at end-systole (defined as minimum internal ventricular dimension).
This is consistent with the hypothesis that the benefit derived from the inhibition of PCSK9 is the result of increased availability of LDLR and a subsequent reduction in plasma LDL.

PCSK9 = conditions: intravenous infusion, as early as 8 hours after injection, non-human primates; cited from earlier work
[1] = LDLR−/− mice, 6 hrs after LPS, median (95% CI), n = 4
[2] = LDLR−/− mice, baseline, median (95% CI), n = 4

Molecule | Activity 6 hrs LPS (LPS treated LDLR−/− mice; [1]) | EF 6 hrs LPS (LPS treated LDLR−/− mice; [1]) | MAP 6 hrs LPS (LPS treated LDLR−/− mice; [1]) | Activity Baseline (LPS treated LDLR−/− mice; [2]) | MAP Baseline (LPS treated LDLR−/− mice; [2]) | Temp. Baseline (LPS treated LDLR−/− mice; [2]) | Differences between saline and berberine mice in responses to LPS (LPS treated LDLR−/− mice; LPS treated LDLR−/− mice, berberine vs saline) | Circulating LDL-C levels (PCSK9)
COc1ccc2cc3[n+](cc2c1OC)CCc1cc2c(cc1-3)OCO2 [Berberine, berberine] | 0 (−0.8-0.3) | 26.0 (23.0-29.0) | 53 (52-54) | 0 (0-0) | 109 (93-125)^ | 37.0 (36.2-37.9) | minimal differences | 
B1 |  |  |  |  |  |  |  | significant reduction
